Source: a compilation of properties of binary mixtures (doi:10.1007/s10973-018-7427-0)

Assay: xn = mol fraction of the nth substance listed
Conditions: 100 kPa

CCCC[n+]1ccn(C)c1.F[P-](F)(F)(F)(F)F + C=CN1CCCC1=O
x1 = 1
Conditions	speed of sound [m/s]
298.15 K	1443.8
303.15 K	1431.7
308.15 K	1419.8
313.15 K	1408.2
318.15 K	1396.8
323.15 K	1385.6

C=CN1CCCC1=O + CCCC[n+]1ccn(C)c1.F[P-](F)(F)(F)(F)F
speed of sound [m/s]
Conditions	x2 = 0	x2 = 0.1011	x2 = 0.2059	x2 = 0.3019	x2 = 0.3937	x2 = 0.5023	x2 = 0.584	x2 = 0.6946	x2 = 0.7788	x2 = 0.8707
298.15 K	1521.5	–	1506	1496.4	1487.8	1477.6	1470.5	1461.5	1455.7	1449.9
303.15 K	–	1498.9	1490.1	–	1473.5	1463.9	1457.4	1449.1	1443.4	1437.9
308.15 K	1483.7	1481.8	–	–	1459.2	1450.2	1444.3	–	1431.1	1425.8
313.15 K	1465	1464.7	1458.3	–	1444.9	–	1431.2	–	1419	1414
318.15 K	1446.5	–	–	1436.6	1430.9	1423.4	1418.4	1411.6	1407	1402.3
323.15 K	–	1431.1	–	–	1416.9	1410.2	1405.7	1399.4	1395.1	1390.8
